Publication PMC3898733 (ACS nano, 2013)

System: Factor VII
Assay: In vivo Factor VII silencing
Conditions: for knock down of coagulation Factor VII: as stated in the abstract, dose not printed there; for activity in decreasing Factor VII expression: nanoparticles decorated with scrambled peptide, three days post injection

Substance	knock down of coagulation Factor VII [%]	reduction of Factor VII expression (peptide decorated nanoparticles with Factor VII siRNA, tail vein, 5 mg/kg siRNA, blood three days post-injection, n=5) [%]	activity in decreasing Factor VII expression (5 mg/kg siRNA)
CWLCRALIKRIQAMIP [compound 5]	90	50	–
KRCRGWRQKMCLW	–	–	did not exhibit any activity
LRGYEGHRCGILALLDLACTKHANCLPCTQPS	–	–	did not exhibit any activity
MLRIAIRAWLCIPQCK	–	–	did not exhibit any activity
lactoferricin	90	–	–
